Values after ≈ are worked out from the molar mass of the structure shown. Where two headings read alike, the source gives them in different places.
Legend:
[1] = system: Klebsiella pneumoniae FDA PCI 602; test: in vitro antibacterial activity, standard agar dilution method; format: cell-based; conditions: FDAPCI602, aerobic, read-out: minimum inhibitory concentration (MIC)
[2] = system: Pseudomonas aeruginosa NR 2950; test: as above; format: cell-based; conditions: NR2950, aerobic, read-out: minimum inhibitory concentration (MIC)
[3] = system: Enterobacter cloacae NR 2946; test: as above; format: cell-based; conditions: NR2946, aerobic, read-out: minimum inhibitory concentration (MIC)
[4] = system: Proteus vulgaris OX19 ATCC 6898; test: as above; format: cell-based; conditions: ATCC6898, aerobic, read-out: minimum inhibitory concentration (MIC)
[5] = system: Serratia marcescens IFO 12648; test: as above; format: cell-based; conditions: IFO12648, aerobic, read-out: minimum inhibitory concentration (MIC)
[6] = system: Enterobacter aerogenes NR 2945; test: as above; format: cell-based; conditions: Klebsiella aerogenes, NR2945, aerobic, read-out: minimum inhibitory concentration (MIC)
[7] = system: Staphylococcus aureus FDA 209P JC-1; test: as above; format: cell-based; conditions: FDA209P, read-out: minimum inhibitory concentration (MIC)
Escherichia coli NR 2630 = test: as above; format: cell-based; conditions: NR2630; Escherichia coli NR 2630; aerobic; agar dilution; read-out: minimum inhibitory concentration (MIC)
[8] = system: Staphylococcus epidermidis NR 2942; test: as above; format: cell-based; conditions: NR2942, aerobic, read-out: minimum inhibitory concentration (MIC)
[9] = system: Alcaligenes faecalis IFO 13111; test: as above; format: cell-based; conditions: IFO13111, aerobic, read-out: minimum inhibitory concentration (MIC)
[10] = system: Staphylococcus aureus Smith; test: as above; format: cell-based; conditions: read-out: minimum inhibitory concentration (MIC)
[11] = system: Bordetella bronchiseptica ATCC 4617; test: as above; format: cell-based; conditions: ATCC4617, aerobic, read-out: minimum inhibitory concentration (MIC)
[12] = system: Staphylococcus aureus NR 2855; test: as above; format: cell-based; conditions: NR2855; Staphylococcus aureus NR 2855; aerobic; agar dilution; read-out: minimum inhibitory concentration (MIC)
[13] = system: Pseudomonas aeruginosa A3; test: as above; format: cell-based; conditions: aerobic, read-out: minimum inhibitory concentration (MIC)
[14] = system: Salmonella typhimurium IFO 12529; test: as above; format: cell-based; conditions: Salmonella enterica, aerobic, read-out: minimum inhibitory concentration (MIC)
[15] = system: Escherichia coli NIHJ JC-2; test: as above; format: cell-based; conditions: NIHJJC2, aerobic, read-out: minimum inhibitory concentration (MIC)
[16] = system: Proteus rettgeri ATCC 14505; test: as above; format: cell-based; conditions: Providencia rettgeri, ATCC14505, aerobic, read-out: minimum inhibitory concentration (MIC)
[17] = system: Pseudomonas stutzeri IFO 12695; test: as above; format: cell-based; conditions: Stutzerimonas stutzeri, IFO12695, aerobic, read-out: minimum inhibitory concentration (MIC)
[18] = system: Enterococcus faecalis NR 2943; test: as above; format: cell-based; conditions: NR2943, aerobic, read-out: minimum inhibitory concentration (MIC)
[19] = acute toxicity by oral administration; conditions: mouse, in vivo; oral administration, ICR mice; read-out: LD50
Description: The acute toxicity of these compounds was examined by oral administration in ICR mice.

[20] = system: Bacillus subtilis PCI 219; test: in vitro antibacterial activity, standard agar dilution method; format: cell-based; conditions: PCI219, aerobic, read-out: minimum inhibitory concentration (MIC)
[21] = system: Staphylococcus epidermidis IFO 12993; test: as above; format: cell-based; conditions: IFO12993, aerobic, read-out: minimum inhibitory concentration (MIC)
[22] = system: Citrobacter freundii IFO 12681; test: as above; format: cell-based; conditions: IFO12681, aerobic, read-out: minimum inhibitory concentration (MIC)
[23] = Staphylococcus aureus FDA 209P JC-1, aerobic, agar dilution
[24] = Staphylococcus aureus Smith, aerobic, agar dilution

CN1COc2c(-n3ccnc3)c(F)cc3c(=O)c(C(=O)O)cn1c23 [Example 56, 9-fluoro-10-(1-imidazolyl)-3-methyl-7-oxo-2,3-dihydro-7H-pyrido[3,2,1-ij]-1,3,4-benzoxadiazine-6-carboxylic acid]
MIC [1]: 0.39 µg/mL (≈ 1.18 µM)
MIC [2]: 6.25 µg/mL (≈ 18.9 µM)
MIC [3]: 0.05 µg/mL (≈ 0.151 µM)
MIC [4]: 0.013 µg/mL (≈ 0.0394 µM)
MIC [5]: 0.78 µg/mL (≈ 2.36 µM)
MIC [6]: 0.1 µg/mL (≈ 0.303 µM)
MIC ([7]; Staphylococcus aureus): 0.39 µg/mL (≈ 1.18 µM)
MIC (Escherichia coli NR 2630): 0.0065 µg/mL (≈ 0.0197 µM)
MIC [8]: 0.39 µg/mL (≈ 1.18 µM)
MIC [9]: 3.13 µg/mL (≈ 9.48 µM)
MIC ([10]; Staphylococcus aureus): 0.39 µg/mL (≈ 1.18 µM)
MIC [11]: 3.13 µg/mL (≈ 9.48 µM)
MIC [12]: 0.78 µg/mL (≈ 2.36 µM)
MIC [13]: 3.13 µg/mL (≈ 9.48 µM)
MIC [14]: 0.05 µg/mL (≈ 0.151 µM)
MIC [15]: 0.1 µg/mL (≈ 0.303 µM)
MIC [16]: 1.56 µg/mL (≈ 4.72 µM)
MIC [17]: 0.0033 µg/mL (≈ 0.00999 µM)
MIC [18]: 12.5 µg/mL (≈ 37.8 µM)
LD50 [19]: > 2000 mg/kg
MIC [20]: 0.2 µg/mL (≈ 0.606 µM)
MIC [21]: 0.39 µg/mL (≈ 1.18 µM)
MIC [22]: 0.1 µg/mL (≈ 0.303 µM)

CN1COc2c(N3CCCNCC3)c(F)cc3c(=O)c(C(=O)O)cn1c23 [Example 16]
MIC [1]: 1.56 µg/mL (≈ 4.31 µM)
MIC [2]: 6.25 µg/mL (≈ 17.2 µM)
MIC [3]: 0.1 µg/mL (≈ 0.276 µM)
MIC [4]: 0.1 µg/mL (≈ 0.276 µM)
MIC [5]: 0.39 µg/mL (≈ 1.08 µM)
MIC [6]: 0.05 µg/mL (≈ 0.138 µM)
MIC [7, 23]: 0.39 µg/mL (≈ 1.08 µM)
MIC [8]: 1.56 µg/mL (≈ 4.31 µM)
MIC [9]: 50 µg/mL (≈ 138 µM)
MIC [10, 24]: 0.39 µg/mL (≈ 1.08 µM)
MIC [11]: 25 µg/mL (≈ 69 µM)
MIC [12]: 6.25 µg/mL (≈ 17.2 µM)
MIC [13]: 0.39 µg/mL (≈ 1.08 µM)
MIC [14]: 0.1 µg/mL (≈ 0.276 µM)
MIC [15]: 0.2 µg/mL (≈ 0.552 µM)
MIC [16]: 1.56 µg/mL (≈ 4.31 µM)
MIC [17]: 0.05 µg/mL (≈ 0.138 µM)
MIC [18]: 25 µg/mL (≈ 69 µM)
LD50 [19]: > 2000 mg/kg
MIC [20]: 0.2 µg/mL (≈ 0.552 µM)
MIC [21]: 1.56 µg/mL (≈ 4.31 µM)
MIC [22]: 0.1 µg/mL (≈ 0.276 µM)

CN1COc2c(N3CCC(N)C3)c(F)cc3c(=O)c(C(=O)OCOC(=O)C(C)(C)C)cn1c23 (centres unmarked) [Example 63, pivaloyloxymethyl 10-(3-amino-1-pyrrolidinyl)-9-fluoro-3-methyl-7-oxo-2,3-dihydro-7H-pyrido[3,2,1-ij]-1,3,4-benzoxadiazine-6-carboxylate]
MIC [1]: 6.25 µg/mL (≈ 13.5 µM)
MIC [2]: 25 µg/mL (≈ 54.1 µM)
MIC [3]: 1.56 µg/mL (≈ 3.37 µM)
MIC [4]: 0.39 µg/mL (≈ 0.843 µM)
MIC [5]: 3.13 µg/mL (≈ 6.77 µM)
MIC [6]: 0.39 µg/mL (≈ 0.843 µM)
MIC [7, 23]: 0.78 µg/mL (≈ 1.69 µM)
MIC (Escherichia coli NR 2630): 0.78 µg/mL (≈ 1.69 µM)
MIC [8]: 0.78 µg/mL (≈ 1.69 µM)
MIC [9]: 100 µg/mL (≈ 216 µM)
MIC ([10]; Staphylococcus aureus): 0.39 µg/mL (≈ 0.843 µM)
MIC [11]: 50 µg/mL (≈ 108 µM)
MIC [12]: 3.13 µg/mL (≈ 6.77 µM)
MIC [13]: 3.13 µg/mL (≈ 6.77 µM)
MIC [14]: 0.78 µg/mL (≈ 1.69 µM)
MIC [15]: 1.56 µg/mL (≈ 3.37 µM)
MIC [16]: 6.25 µg/mL (≈ 13.5 µM)
MIC [17]: 0.39 µg/mL (≈ 0.843 µM)
MIC [18]: 25 µg/mL (≈ 54.1 µM)
MIC [20]: 0.78 µg/mL (≈ 1.69 µM)
MIC [21]: 1.56 µg/mL (≈ 3.37 µM)
MIC [22]: 0.78 µg/mL (≈ 1.69 µM)

CNC1CCN(c2c(F)cc3c(=O)c(C(=O)O)cn4c3c2OCN4C)C1 (centres unmarked) [Example 31]
MIC [1]: 0.2 µg/mL (≈ 0.552 µM)
MIC [2]: 1.56 µg/mL (≈ 4.31 µM)
MIC [3]: 0.05 µg/mL (≈ 0.138 µM)
MIC [4]: 0.025 µg/mL (≈ 0.069 µM)
MIC [5]: 0.2 µg/mL (≈ 0.552 µM)
MIC [6]: 0.025 µg/mL (≈ 0.069 µM)
MIC [7, 23]: 0.39 µg/mL (≈ 1.08 µM)
MIC (Escherichia coli NR 2630): 0.025 µg/mL (≈ 0.069 µM)
MIC [8]: 0.39 µg/mL (≈ 1.08 µM)
MIC [9]: 3.13 µg/mL (≈ 8.64 µM)
MIC [10, 24]: 0.2 µg/mL (≈ 0.552 µM)
MIC [11]: 3.13 µg/mL (≈ 8.64 µM)
MIC [12]: 0.78 µg/mL (≈ 2.15 µM)
MIC [13]: 0.2 µg/mL (≈ 0.552 µM)
MIC [14]: 0.025 µg/mL (≈ 0.069 µM)
MIC [15]: 0.05 µg/mL (≈ 0.138 µM)
MIC [16]: 0.39 µg/mL (≈ 1.08 µM)
MIC [17]: 0.025 µg/mL (≈ 0.069 µM)
MIC [18]: 12.5 µg/mL (≈ 34.5 µM)
MIC [20]: 0.05 µg/mL (≈ 0.138 µM)
MIC [21]: 0.39 µg/mL (≈ 1.08 µM)
MIC [22]: 0.05 µg/mL (≈ 0.138 µM)
